Measured values taken from the kinase profiling compilation of Christmann-Franck et al. (2016).

Assays:
Experiment in all cases: KINOMEscan competition binding
Settings in all cases: compound 10.0 µM
TNIK (human) = TNIK (human) (UniProt Q9UKE5)
INSR (human) = INSR (human) (UniProt P06213)
PAK7 (human) = PAK7 (human) (UniProt Q9P286)
FGR (human) = FGR (human) (UniProt P09769)
RIPK2 (human) = RIPK2 (human) (UniProt O43353)
PRKCQ (human) = PRKCQ (human) (UniProt Q04759)
MELK (human) = MELK (human) (UniProt Q14680)
Sequence of MELK (human) (Q14680 whole entry, looked up): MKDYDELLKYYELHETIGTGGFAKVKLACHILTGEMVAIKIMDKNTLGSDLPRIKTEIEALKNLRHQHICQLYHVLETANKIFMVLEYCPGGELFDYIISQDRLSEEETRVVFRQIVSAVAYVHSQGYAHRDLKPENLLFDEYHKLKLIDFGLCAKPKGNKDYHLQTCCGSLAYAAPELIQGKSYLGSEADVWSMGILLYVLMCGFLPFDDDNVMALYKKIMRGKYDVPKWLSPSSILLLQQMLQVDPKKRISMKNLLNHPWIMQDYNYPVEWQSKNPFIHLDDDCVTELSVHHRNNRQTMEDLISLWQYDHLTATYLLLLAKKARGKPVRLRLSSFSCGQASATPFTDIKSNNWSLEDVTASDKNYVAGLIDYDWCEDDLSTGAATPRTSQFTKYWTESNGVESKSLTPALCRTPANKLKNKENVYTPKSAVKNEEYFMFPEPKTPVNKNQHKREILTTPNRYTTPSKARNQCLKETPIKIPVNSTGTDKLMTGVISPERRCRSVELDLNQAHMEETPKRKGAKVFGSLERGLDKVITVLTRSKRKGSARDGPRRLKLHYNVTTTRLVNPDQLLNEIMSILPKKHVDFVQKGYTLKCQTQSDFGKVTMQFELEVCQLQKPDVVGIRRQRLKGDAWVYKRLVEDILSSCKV

TLK1 (human) = TLK1 (human) (UniProt Q9UKI8)
[1] = target: JAK1 JH2 pseudokinase (human) (UniProt P23458)
NUAK1 (human) = NUAK1 (human) (UniProt O60285)
MAPK6 (human) = MAPK6 (human) (UniProt Q16659)
STK36 (human) = STK36 (human) (UniProt Q9NRP7)
PIK3CB (human) = PIK3CB (human) (UniProt P42338)
Sequence of PIK3CB (human) (P42338 whole entry, looked up): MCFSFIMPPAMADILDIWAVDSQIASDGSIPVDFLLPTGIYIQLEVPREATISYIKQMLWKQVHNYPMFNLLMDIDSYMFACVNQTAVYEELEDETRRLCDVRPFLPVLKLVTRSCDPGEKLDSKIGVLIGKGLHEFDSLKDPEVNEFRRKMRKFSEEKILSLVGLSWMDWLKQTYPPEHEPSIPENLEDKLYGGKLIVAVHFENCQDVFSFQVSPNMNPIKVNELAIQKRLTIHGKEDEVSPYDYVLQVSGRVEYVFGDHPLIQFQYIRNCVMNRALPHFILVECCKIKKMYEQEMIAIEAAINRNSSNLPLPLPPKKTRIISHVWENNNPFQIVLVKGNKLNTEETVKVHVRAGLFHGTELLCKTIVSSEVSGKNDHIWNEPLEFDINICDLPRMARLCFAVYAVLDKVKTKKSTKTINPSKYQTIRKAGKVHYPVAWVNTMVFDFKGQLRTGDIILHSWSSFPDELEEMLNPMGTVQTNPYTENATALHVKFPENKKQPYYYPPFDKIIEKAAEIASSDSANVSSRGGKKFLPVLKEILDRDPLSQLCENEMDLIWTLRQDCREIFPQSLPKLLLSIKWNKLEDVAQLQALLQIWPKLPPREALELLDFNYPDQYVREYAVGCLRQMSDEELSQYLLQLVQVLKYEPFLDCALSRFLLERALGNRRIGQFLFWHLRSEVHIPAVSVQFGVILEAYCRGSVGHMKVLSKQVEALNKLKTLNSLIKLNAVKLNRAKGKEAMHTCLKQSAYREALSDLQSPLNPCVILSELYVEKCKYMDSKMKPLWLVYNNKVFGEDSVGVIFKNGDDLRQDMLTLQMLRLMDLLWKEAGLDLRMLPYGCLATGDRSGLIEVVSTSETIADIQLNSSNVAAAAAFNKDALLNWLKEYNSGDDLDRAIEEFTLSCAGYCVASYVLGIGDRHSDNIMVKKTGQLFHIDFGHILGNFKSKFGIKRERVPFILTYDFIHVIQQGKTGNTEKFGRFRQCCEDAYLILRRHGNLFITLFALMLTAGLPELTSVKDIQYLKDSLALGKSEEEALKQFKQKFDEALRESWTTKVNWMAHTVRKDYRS

IKBKE (human) = IKBKE (human) (UniProt Q14164)
NEK7 (human) = NEK7 (human) (UniProt Q8TDX7)
PIK3C2B (human) = PIK3C2B (human) (UniProt O00750)
STK3 (human) = STK3 (human) (UniProt Q13188)
ERBB4 (human) = ERBB4 (human) (UniProt Q15303)
NEK6 (human) = NEK6 (human) (UniProt Q9HC98)
PDGFRA (human) = PDGFRA (human) (UniProt P16234)
WEE1 (human) = WEE1 (human) (UniProt P30291)
[2] = target: JAK2 JH1 catalytic (human) (UniProt O60674)
PRKCD (human) = PRKCD (human) (UniProt Q05655)
MAPK15 (human) = MAPK15 (human) (UniProt Q8TD08)
AKT1 (human) = AKT1 (human) (UniProt P31749)
IGF1R (human) = IGF1R (human) (UniProt P08069)
ZAP70 (human) = ZAP70 (human) (UniProt P43403)
ACVR2A (human) = ACVR2A (human) (UniProt P27037)
RAF1 (human) = RAF1 (human) (UniProt P04049)
Sequence of RAF1 (human) (P04049 whole entry, looked up): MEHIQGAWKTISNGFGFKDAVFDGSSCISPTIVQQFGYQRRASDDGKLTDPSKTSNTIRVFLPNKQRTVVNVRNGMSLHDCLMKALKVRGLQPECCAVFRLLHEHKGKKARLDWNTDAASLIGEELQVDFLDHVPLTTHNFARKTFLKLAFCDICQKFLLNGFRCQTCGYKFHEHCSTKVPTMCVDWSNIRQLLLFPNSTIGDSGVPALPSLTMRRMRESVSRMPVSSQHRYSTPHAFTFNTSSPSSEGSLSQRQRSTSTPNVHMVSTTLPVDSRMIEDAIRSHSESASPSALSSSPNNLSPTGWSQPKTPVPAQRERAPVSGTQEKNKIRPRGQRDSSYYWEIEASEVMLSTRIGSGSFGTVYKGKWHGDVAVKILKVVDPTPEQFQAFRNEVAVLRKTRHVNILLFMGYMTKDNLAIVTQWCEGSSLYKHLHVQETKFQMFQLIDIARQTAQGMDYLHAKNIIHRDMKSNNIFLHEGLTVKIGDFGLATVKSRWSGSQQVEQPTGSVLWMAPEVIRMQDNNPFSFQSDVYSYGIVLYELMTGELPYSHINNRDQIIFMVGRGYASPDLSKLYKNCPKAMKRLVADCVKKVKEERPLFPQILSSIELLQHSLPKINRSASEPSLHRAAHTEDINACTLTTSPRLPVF

CSK (human) = CSK (human) (UniProt P41240)
TEK (human) = TEK (human) (UniProt Q02763)
ACVRL1 (human) = ACVRL1 (human) (UniProt P37023)
[3] = target: JAK3 JH1 catalytic (human) (UniProt P52333)
PRKG2 (human) = PRKG2 (human) (UniProt Q13237)
MST4 (human) = MST4 (human) (UniProt Q9P289)
MAP2K4 (human) = MAP2K4 (human) (UniProt P45985)
NTRK1 (human) = NTRK1 (human) (UniProt P04629)
BRSK2 (human) = BRSK2 (human) (UniProt Q8IWQ3)
Sequence of BRSK2 (human) (Q8IWQ3 whole entry, looked up): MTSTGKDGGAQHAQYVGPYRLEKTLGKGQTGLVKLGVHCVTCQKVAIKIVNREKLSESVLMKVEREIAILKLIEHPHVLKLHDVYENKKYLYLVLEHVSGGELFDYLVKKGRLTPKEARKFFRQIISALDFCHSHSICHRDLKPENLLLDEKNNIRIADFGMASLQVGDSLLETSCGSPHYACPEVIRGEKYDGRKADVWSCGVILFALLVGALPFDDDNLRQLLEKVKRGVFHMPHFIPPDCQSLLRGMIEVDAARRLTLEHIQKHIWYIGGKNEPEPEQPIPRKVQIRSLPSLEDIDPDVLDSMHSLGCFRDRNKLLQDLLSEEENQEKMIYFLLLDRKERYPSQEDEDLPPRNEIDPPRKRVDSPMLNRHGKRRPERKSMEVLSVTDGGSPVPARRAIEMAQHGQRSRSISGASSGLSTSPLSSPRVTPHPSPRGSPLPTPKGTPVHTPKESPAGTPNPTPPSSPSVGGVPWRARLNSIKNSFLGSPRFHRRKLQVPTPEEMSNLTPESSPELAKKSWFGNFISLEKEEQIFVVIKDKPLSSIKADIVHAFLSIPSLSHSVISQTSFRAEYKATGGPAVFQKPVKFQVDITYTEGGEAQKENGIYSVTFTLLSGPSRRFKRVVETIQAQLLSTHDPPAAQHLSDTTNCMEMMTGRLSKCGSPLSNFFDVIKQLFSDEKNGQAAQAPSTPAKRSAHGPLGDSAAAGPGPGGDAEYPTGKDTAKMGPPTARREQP

PHKG1 (human) = PHKG1 (human) (UniProt Q16816)
CDC42BPG (human) = CDC42BPG (human) (UniProt Q6DT37)

Sequence of INSR (human) (P06213 whole entry, looked up): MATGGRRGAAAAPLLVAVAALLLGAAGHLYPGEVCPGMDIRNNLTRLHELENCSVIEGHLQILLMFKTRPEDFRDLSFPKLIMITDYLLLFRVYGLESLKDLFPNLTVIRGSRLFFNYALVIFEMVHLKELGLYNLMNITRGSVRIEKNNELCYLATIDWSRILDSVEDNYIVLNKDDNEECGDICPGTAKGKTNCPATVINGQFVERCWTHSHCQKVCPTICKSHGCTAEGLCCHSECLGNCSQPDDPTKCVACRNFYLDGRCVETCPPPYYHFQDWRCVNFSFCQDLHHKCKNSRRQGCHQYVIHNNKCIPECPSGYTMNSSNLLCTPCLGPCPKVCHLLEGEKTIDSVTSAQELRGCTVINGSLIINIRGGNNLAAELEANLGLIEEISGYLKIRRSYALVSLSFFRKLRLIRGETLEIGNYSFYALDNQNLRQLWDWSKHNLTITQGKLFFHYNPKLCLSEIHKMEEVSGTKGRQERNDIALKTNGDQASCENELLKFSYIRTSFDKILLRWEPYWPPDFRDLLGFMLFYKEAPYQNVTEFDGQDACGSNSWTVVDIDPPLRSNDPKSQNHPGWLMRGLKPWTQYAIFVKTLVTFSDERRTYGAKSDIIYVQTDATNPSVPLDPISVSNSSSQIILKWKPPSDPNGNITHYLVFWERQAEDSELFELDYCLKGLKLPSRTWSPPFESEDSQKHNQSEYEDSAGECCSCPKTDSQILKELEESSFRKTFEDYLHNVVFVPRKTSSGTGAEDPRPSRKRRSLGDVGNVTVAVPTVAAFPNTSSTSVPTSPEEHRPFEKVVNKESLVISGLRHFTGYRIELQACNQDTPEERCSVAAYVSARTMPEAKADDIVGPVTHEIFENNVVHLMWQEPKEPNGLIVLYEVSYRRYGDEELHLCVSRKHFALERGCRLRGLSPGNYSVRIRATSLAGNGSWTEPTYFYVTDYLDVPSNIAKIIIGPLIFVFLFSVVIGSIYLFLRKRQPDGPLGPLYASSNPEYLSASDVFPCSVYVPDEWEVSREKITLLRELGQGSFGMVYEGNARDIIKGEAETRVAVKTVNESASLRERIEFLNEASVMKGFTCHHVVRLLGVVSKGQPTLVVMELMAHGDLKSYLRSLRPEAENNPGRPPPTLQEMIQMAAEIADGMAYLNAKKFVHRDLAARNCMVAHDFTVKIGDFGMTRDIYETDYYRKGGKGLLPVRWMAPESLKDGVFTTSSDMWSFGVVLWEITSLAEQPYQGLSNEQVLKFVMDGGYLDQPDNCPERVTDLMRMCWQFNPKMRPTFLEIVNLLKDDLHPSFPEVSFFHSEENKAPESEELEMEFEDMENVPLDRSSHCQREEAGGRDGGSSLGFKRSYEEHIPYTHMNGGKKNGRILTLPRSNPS
Sequence of FGR (human) (P09769 whole entry, looked up): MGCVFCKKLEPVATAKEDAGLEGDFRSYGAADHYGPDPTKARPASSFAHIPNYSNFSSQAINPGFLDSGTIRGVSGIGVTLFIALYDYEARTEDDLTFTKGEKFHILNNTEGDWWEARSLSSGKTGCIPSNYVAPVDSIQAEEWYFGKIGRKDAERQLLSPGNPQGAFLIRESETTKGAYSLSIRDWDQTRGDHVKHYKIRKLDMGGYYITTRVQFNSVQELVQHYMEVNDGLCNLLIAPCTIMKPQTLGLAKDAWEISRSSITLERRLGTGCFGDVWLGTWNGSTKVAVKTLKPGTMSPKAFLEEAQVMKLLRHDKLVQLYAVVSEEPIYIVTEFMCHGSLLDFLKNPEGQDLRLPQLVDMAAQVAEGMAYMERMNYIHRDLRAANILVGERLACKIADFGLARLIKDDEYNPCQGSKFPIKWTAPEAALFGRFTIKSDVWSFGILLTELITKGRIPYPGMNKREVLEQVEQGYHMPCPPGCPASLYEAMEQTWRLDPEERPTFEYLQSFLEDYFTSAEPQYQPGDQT

## C[C@@H](Oc1cc(-n2cnc3ccc(CN4CCN(C)CC4)cc32)sc1C(N)=O)c1ccccc1C(F)(F)F
TNIK (human)
  kinase still bound, per cent of control: 78%
INSR (human)
  kinase still bound, per cent of control: 100%
PAK7 (human)
  kinase still bound, per cent of control: 60%
FGR (human)
  kinase still bound, per cent of control: 82%
RIPK2 (human)
  kinase still bound, per cent of control: 92%
PRKCQ (human)
  kinase still bound, per cent of control: 47%
MELK (human)
  kinase still bound, per cent of control: 49%
TLK1 (human)
  kinase still bound, per cent of control: 71%
[1]
  kinase still bound, per cent of control: 92%
NUAK1 (human)
  kinase still bound, per cent of control: 17%
MAPK6 (human)
  kinase still bound, per cent of control: 100%
STK36 (human)
  kinase still bound, per cent of control: 98%
PIK3CB (human)
  kinase still bound, per cent of control: 0.8%
IKBKE (human)
  kinase still bound, per cent of control: 58%
NEK7 (human)
  kinase still bound, per cent of control: 66%
PIK3C2B (human)
  kinase still bound, per cent of control: 14%
STK3 (human)
  kinase still bound, per cent of control: 74%
ERBB4 (human)
  kinase still bound, per cent of control: 88%
NEK6 (human)
  kinase still bound, per cent of control: 95%
PDGFRA (human)
  kinase still bound, per cent of control: 100%
WEE1 (human)
  kinase still bound, per cent of control: 100%
[2]
  kinase still bound, per cent of control: 87%
PRKCD (human)
  kinase still bound, per cent of control: 22%
MAPK15 (human)
  kinase still bound, per cent of control: 52%
AKT1 (human)
  kinase still bound, per cent of control: 100%
IGF1R (human)
  kinase still bound, per cent of control: 100%
ZAP70 (human)
  kinase still bound, per cent of control: 69%
ACVR2A (human)
  kinase still bound, per cent of control: 100%
RAF1 (human)
  kinase still bound, per cent of control: 100%
CSK (human)
  kinase still bound, per cent of control: 100%
TEK (human)
  kinase still bound, per cent of control: 78%
ACVRL1 (human)
  kinase still bound, per cent of control: 100%
[3]
  kinase still bound, per cent of control: 10%
PRKG2 (human)
  kinase still bound, per cent of control: 95%
MST4 (human)
  kinase still bound, per cent of control: 95%
MAP2K4 (human)
  kinase still bound, per cent of control: 86%
NTRK1 (human)
  kinase still bound, per cent of control: 74%
BRSK2 (human)
  kinase still bound, per cent of control: 52%
PHKG1 (human)
  kinase still bound, per cent of control: 94%
CDC42BPG (human)
  kinase still bound, per cent of control: 100%

## C=CC(=O)Nc1cc(NC(=O)c2ccc(C)c(NC(=O)c3ccno3)c2)cc(C(F)(F)F)c1
TNIK (human)
  kinase still bound, per cent of control: 100%
INSR (human)
  kinase still bound, per cent of control: 92%
PAK7 (human)
  kinase still bound, per cent of control: 94%
FGR (human)
  kinase still bound, per cent of control: 63%
RIPK2 (human)
  kinase still bound, per cent of control: 100%
PRKCQ (human)
  kinase still bound, per cent of control: 100%
MELK (human)
  kinase still bound, per cent of control: 100%
TLK1 (human)
  kinase still bound, per cent of control: 100%
[1]
  kinase still bound, per cent of control: 92%
NUAK1 (human)
  kinase still bound, per cent of control: 100%
MAPK6 (human)
  kinase still bound, per cent of control: 100%
STK36 (human)
  kinase still bound, per cent of control: 100%
PIK3CB (human)
  kinase still bound, per cent of control: 100%
IKBKE (human)
  kinase still bound, per cent of control: 100%
NEK7 (human)
  kinase still bound, per cent of control: 100%
PIK3C2B (human)
  kinase still bound, per cent of control: 100%
STK3 (human)
  kinase still bound, per cent of control: 100%
ERBB4 (human)
  kinase still bound, per cent of control: 100%
NEK6 (human)
  kinase still bound, per cent of control: 100%
PDGFRA (human)
  kinase still bound, per cent of control: 41%
WEE1 (human)
  kinase still bound, per cent of control: 100%
[2]
  kinase still bound, per cent of control: 74%
PRKCD (human)
  kinase still bound, per cent of control: 91%
MAPK15 (human)
  kinase still bound, per cent of control: 100%
AKT1 (human)
  kinase still bound, per cent of control: 58%
IGF1R (human)
  kinase still bound, per cent of control: 63%
ZAP70 (human)
  kinase still bound, per cent of control: 54%
ACVR2A (human)
  kinase still bound, per cent of control: 100%
RAF1 (human)
  kinase still bound, per cent of control: 40%
CSK (human)
  kinase still bound, per cent of control: 71%
TEK (human)
  kinase still bound, per cent of control: 100%
ACVRL1 (human)
  kinase still bound, per cent of control: 100%
[3]
  kinase still bound, per cent of control: 100%
PRKG2 (human)
  kinase still bound, per cent of control: 94%
MST4 (human)
  kinase still bound, per cent of control: 91%
MAP2K4 (human)
  kinase still bound, per cent of control: 100%
NTRK1 (human)
  kinase still bound, per cent of control: 87%
BRSK2 (human)
  kinase still bound, per cent of control: 100%
PHKG1 (human)
  kinase still bound, per cent of control: 92%
CDC42BPG (human)
  kinase still bound, per cent of control: 100%
